“Also recorded” adds a separate entry of the source. Where a name gives a salt, the structure may show the parent alone. Read-outs that look alike come from different tables or passages of the source.

One assay addresses T1, human TIMP-3 (Homo sapiens, UniProt P35625).
T1 construct: made in house; host or cells: human embryonic kidney 293 cells
T1 sequence (P35625 24-211): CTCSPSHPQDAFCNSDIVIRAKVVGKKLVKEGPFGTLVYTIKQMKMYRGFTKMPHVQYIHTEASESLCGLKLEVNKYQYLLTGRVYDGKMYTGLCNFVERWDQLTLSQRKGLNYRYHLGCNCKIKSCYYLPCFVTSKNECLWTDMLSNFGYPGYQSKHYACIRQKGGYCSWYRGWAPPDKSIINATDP
The assay is described as follows: Solid-phase binding of TIMP-3 to immobilized suramin or analogs (ELISA). To be noted: TIMP-3 0.4–50 nM; for EC50: plates coated with 10 µg/ml compound, one-site specific binding model, mean ± S.E., n = 3; for Kd: solid-phase binding assay, plates coated 10 µg/ml, read-out: KD value for TIMP-3 binding to immobilized compound. On the procedure:
Glycosaminoglycan-binding ELISA plates (BD Life Sciences, Swindon, UK) were coated with suramin or its analogs (10 µg/ml in Tris-buffered saline, 18 hours, 25°C) ([Mahoney et al., 2004]) and wells were blocked with 0.2% gelatin in PBS (1 hour, 37°C). Wells were washed in PBS containing 0.1% Tween 20 after this and every subsequent step. Purified FLAG-tagged human TIMP-3 (0.4–50 nM) in blocking solution was applied to wells (3 hours, 37°C), and binding was detected with anti-FLAG M2 primary antibody and anti-mouse horseradish peroxidase–conjugated secondary antibody. 3,3′,5,5′-Tetramethylbenzidine (Becton Dickinson, Swindon, UK) substrate was added, the reaction was stopped when appropriate by adding 2 N H2SO4, and absorbance at 450 nm was measured using a FLUOstar Omega microplate reader (BMG Labtech, Aylesbury, Buckinghamshire, UK). Data (mean ± S.E., n = 3 technical repeats) were analyzed using Prism 7.0b software (GraphPad Software, La Jolla, CA) and EC50 values determined using a one-site specific binding model. Flat planar dimensions of suramin analogs were estimated using ICM-Pro software (Molsoft LLC, San Diego, CA).
In general terms: An ELISA detects its analyte on a solid surface through an enzyme-linked reagent.

Assay [1] deals with HTB94 chondrosarcoma cells. The assay is described as follows: Accumulation of endogenous TIMP-3 in medium of HTB94 cells. Format: cell-based. To be noted: 200 µg/ml compound, 36 hours, immunoblotting. On the procedure: Cells (HTB94 chondrosarcoma cells, primary porcine chondrocytes, or human osteoarthritic chondrocytes) were plated overnight (6 × 10^5 cells per well of a 12-well plate) in DMEM containing 10% FCS and washed three times in serum-free DMEM.
Media were harvested, precipitated with trichloroacetic acid, and analyzed by immunoblotting using a rabbit anti–TIMP-3 polyclonal antibody (AB6000; Millipore, Hertfordshire, UK) and an alkaline phosphatase–conjugated anti-rabbit secondary antibody (Promega). […]
Background: In western blotting, separated proteins are transferred to a membrane and probed.

Assay [2] relates to porcine cartilage explants. The assay is described as follows: Aggrecan release from porcine cartilage explants (DMMB assay, neo-epitope immunoblotting). To be noted: porcine cartilage explants; for IC50: Sus scrofa; for protection of cartilage (release of aggrecan fragments) compared with suramin: 200 µg/ml compound. Type of assay: cell-based. The procedure:
The effects of suramin on cartilage degradation were assessed using porcine or human cartilage explants. Explants were rested for 48 hours after dissection and were washed with serum-free DMEM. […]
Aggrecan degradation was analyzed by quantifying aggrecan fragments released into the conditioned media using the dimethylmethylene blue (DMMB) dye-binding assay ([Farndale et al., 1986]) (mean ± S.D., n = 3) and by immunoblotting with neo-epitope antibodies that recognize ADAMTS-cleaved but not intact aggrecan. For immunoblotting, conditioned media were deglycosylated by adding an equal volume of 200 mM sodium acetate and 50 mM Tris/HCl, pH 6.8, containing chondroitinase and β-endoglycosidase (0.05 U each; 18 hours, 37°C; Sigma-Aldrich). Aggrecan fragments were precipitated by adding five volumes of ice-cold acetone (18 hours, −20°C). After centrifugation (13,000 rpm, 10 minutes, 4°C), pellets were resuspended in SDS sample buffer, separated by electrophoresis on a 6% (v/v) polyacrylamide gel, and blotted onto polyvinylidene fluoride. Membranes were blocked with 5% (m/v) BSA in Tris-buffered saline and incubated with either a rabbit antibody that recognizes the AGEG neo-epitope generated by ADAMTS cleavage of the TAQE^1771∼^1772AGEG bond of aggrecan ([Troeberg et al., 2008]) or a mouse antibody that recognizes the ARGSV neo-epitope generated by ADAMTS cleavage of the NITEGE^373∼^374ARGSV bond ([Hughes et al., 1995]).

The test system of assay [3] is purinergic signaling in chondrocytes. On the set-up: method as in Varani et al., 2008. To be noted: compared with suramin; ref Varani et al., 2008; cited from earlier work.
Where [4] appears, read: retinoic acid 1 µM, 48 hours, DMMB assay.

For `O=C(Nc1cccc(C(=O)Nc2ccc(S(=O)(=O)O)c3cc(S(=O)(=O)O)cc(S(=O)(=O)O)c23)c1)Nc1cccc(C(=O)Nc2ccc(S(=O)(=O)O)c3cc(S(=O)(=O)O)cc(S(=O)(=O)O)c23)c1` [NF023, 8,8′-[carbonylbis(imino-3,1-phenylenecarbonylimino)]bis-1,3,5-naphthalene-trisulphonic acid, hexasodium salt], it took 26.5 ± 7.5 nM to reach a half-maximal effect on human TIMP-3 (EC50).

In the case of `O=C(Nc1cc(C(=O)Nc2ccc(S(=O)(=O)O)cc2)cc(C(=O)Nc2ccc(S(=O)(=O)O)cc2)c1)Nc1cc(C(=O)Nc2ccc(S(=O)(=O)O)cc2)cc(C(=O)Nc2ccc(S(=O)(=O)O)cc2)c1` [NF110, 4,4′,4′′,4′′′-[carbonylbis[imino-5,1,3-benzenetriylbis(carbonylimino)]]tetrakisbenzenesulfonic acid tetrasodium salt], the EC50 on human TIMP-3 turned out to be 6.88 ± 0.96 nM.

Turning to `O=C(Nc1cccc(C(=O)Nc2cc(C(=O)Nc3ccc(S(=O)(=O)O)c4cc(S(=O)(=O)O)cc(S(=O)(=O)O)c34)ccc2F)c1)Nc1cccc(C(=O)Nc2cc(C(=O)Nc3ccc(S(=O)(=O)O)c4cc(S(=O)(=O)O)cc(S(=O)(=O)O)c34)ccc2F)c1` [NF157, 8,8′-[carbonylbis[imino-3,1-phenylenecarbonylimino(4-fluoro-3,1-phenylene)carbonylimino]]bis-1,3,5-naphthalenetrisulfonic acid hexasodium salt], on human TIMP-3, the EC50 is 1.55 ± 0.11 nM and the Kd turned out to be 1.5 ± 0.11 nM.

Regarding `O=C(Nc1ccc(C(=O)Nc2ccc(C(=O)Nc3ccc(S(=O)(=O)O)c4cc(S(=O)(=O)O)cc(S(=O)(=O)O)c34)cc2)cc1)Nc1ccc(C(=O)Nc2ccc(C(=O)Nc3ccc(S(=O)(=O)O)c4cc(S(=O)(=O)O)cc(S(=O)(=O)O)c34)cc2)cc1` [NF279, 8,8′-[carbonylbis(imino-4,1-phenylenecarbonylimino-4,1-phenylenecarbonylimino)]bis-1,3,5-naphthalenetrisulfonic acid hexasodium salt], at human TIMP-3, the EC50 was found to be 0.85 ± 0.09 nM and the Kd was 0.85 ± 0.09 nM. Moreover, the “TIMP-3 accumulation in the medium relative to suramin, defined as 100%” value in assay [1] is on record as 233% ± 73%. For the same molecule, the IC50 in assay [2] (48 h, retinoic acid 1 µM, 48 hours, DMMB assay, read-out: IC50 for inhibition of aggrecan release) stood at 15.6 ± 10 µg/mL. In addition, the IC50 in assay [2] (µg/ml value given in molar units, read-out: IC50 for chondroprotective activity) was found to be 11600 nM. The “improvement of IC50 value relative to suramin” value in assay [2] is reported as 6 fold. Also, in assay [2] (setting [4]), the “protection of cartilage (release of aggrecan fragments) compared with suramin” value (from here on “protection of cartilage … compared with suramin”) was “markedly improved activity” and the “IC50 for inhibition of aggrecan release” value amounted to 15 µg/mL. Besides, the “inhibition of purinergic signaling in chondrocytes” value in assay [3] is reported as “less effective than suramin”.

For the molecule `Cc1ccc(C(=O)Nc2cc(S(=O)(=O)[O-])cc3ccc(S(=O)(=O)[O-])cc23)cc1NC(=O)Nc1cc(C(=O)Nc2cc(S(=O)(=O)[O-])cc3ccc(S(=O)(=O)[O-])cc23)ccc1C.[Na+].[Na+].[Na+].[Na+]` [NF340, 4,4′-(carbonylbis(imino-3,1-(4-methyl-phenylene)carbonylimino))bis(naphthalene-2,6-disulfonic acid) tetrasodium salt], on human TIMP-3, the EC50 was more than 100 nM. For the same molecule, in assay [1], the “TIMP-3 accumulation in the medium relative to suramin, defined as 100%” value is reported as “minimal efficacy; also recorded: less effective”. In assay [2] (setting [4]), the “protection of cartilage … compared with suramin” value is “less effective”.

On human TIMP-3, `O=C(Nc1cc(C(=O)Nc2ccc(S(=O)(=O)O)cc2S(=O)(=O)O)cc(C(=O)Nc2ccc(S(=O)(=O)O)cc2S(=O)(=O)O)c1)Nc1cc(C(=O)Nc2ccc(S(=O)(=O)O)cc2S(=O)(=O)O)cc(C(=O)Nc2ccc(S(=O)(=O)O)cc2S(=O)(=O)O)c1` [NF449, 4,4′,4′′,4′′′-[carbonylbis(imino-5,1,3-benzenetriyl-bis(carbonylimino))]tetrakis-1,3-benzenedisulfonic acid, octasodium salt] gave an EC50 of 4.66 ± 0.69 nM.

For the molecule `Cc1ccc(C(=O)Nc2ccc(CP(=O)([O-])O)cc2CP(=O)([O-])O)cc1NC(=O)c1cccc(NC(=O)Nc2cccc(C(=O)Nc3cc(C(=O)Nc4ccc(CP(=O)([O-])O)cc4CP(=O)([O-])O)ccc3C)c2)c1.[Na+].[Na+].[Na+].[Na+]` [NF546, 4,4′-(carbonylbis(imino-3,1-phenylene-carbonylimino-3,1-(4-methyl-phenylene)carbonylimino))-bis(1,3-xylene-α,α′-diphosphonic acid tetrasodium salt], the EC50 at human TIMP-3 is more than 100 nM.

For the molecule `Cc1ccc(C(=O)Nc2ccc(CP(=O)([O-])O)cc2CP(=O)([O-])O)cc1NC(=O)c1cccc(NC(=O)Nc2cccc(C(=O)Nc3cc(C(=O)Nc4ccc(CP(=O)([O-])O)cc4CP(=O)([O-])O)ccc3C)c2)c1.[Na+].[Na+].[Na+].[Na+]` [NF546], the “TIMP-3 accumulation in the medium relative to suramin, defined as 100%” value in assay [1] is recorded as “minimal efficacy; also recorded: less effective”. For the same molecule, the “protection of cartilage … compared with suramin” value in assay [2] (setting [4]) is on record as “less effective”.

By EC50 is commonly meant the concentration at which the effect is half-maximal. Usually Kd stands for the concentration at which binding is half-saturated. One may read the IC50 as the concentration that inhibits the measured activity by half.

The values above are taken from PMC5588548, “Suramin Inhibits Osteoarthritic Cartilage Degradation by Increasing Extracellular Levels of Chondroprotective Tissue Inhibitor of Metalloproteinases 3” (Molecular Pharmacology, 2017).
